Results on eleven compounds are retold here after patent publication US20210161997A1, “TREATING DISEASES VIA TARGETED MODULATION OF GENE SIGNALING NETWORKS” (Camp4 Therapeutics Corporation, priority 2018, published 2021).

Format in all cases: cell-based
In one test the test system is LECT2. Briefly: RNA-seq of LECT2 expression in compound-treated primary human hepatocytes. The method, then:
Human hepatocytes were obtained from two donors from Massachusetts General Hospital, namely MGH54 and MGH63, and one donor from Lonza, namely HUM4111B. Cryopreserved hepatocytes were cultured in plating media for 16 hours, transferred to maintenance media for 4 hours. Cultured on serum-free media for 2 hours, then a compound was added. The hepatocytes were maintained on the serum-free media for 16 hours prior to gene expression analysis. Primary human hepatocytes were stored in the vapor phase of a liquid nitrogen freezer (about −130° C.).
Human hepatocytes cultured as described above were plated in 24-well format, adding 375,000 cells per well in a volume of 500 ul plating medium. Four hours before treatment, cells were washed with PBS and the medium was changed to either: fresh maintenance medium (complete) or modified maintenance medium.
Compound stocks were prepared at 1000× final concentration and added in a 2-step dilution to the medium to reduce risk of a compound precipitating out of solution when added to the cells, and to ensure reasonable pipetting volumes. One at a time, each compound was first diluted 10-fold in warm (about 37° C.) modified maintenance medium (initial dilution=ID), mixed by vortexing, and the ID was diluted 100-fold into the cell culture (e.g. 5.1 ul into 1 well of a 24-well plate containing 0.5 mL medium). The plate was mixed by carefully swirling and after all wells were treated and returned to the incubator overnight. If desired, separate plates/wells were treated with vehicle-only controls and/or positive controls. If using multi-well plates, controls were included on each plate. After about 18 hours, cells were harvested for further analysis, e.g., ChIP-seq, RNA-seq, ATAC-seq, etc.
This protocol is a modified version of the following protocols: MagMAX mirVana Total RNA Isolation Kit User Guide (Applied Biosystems #MAN0011131 Rev B.0), NEBNext Poly(A) mRNA Magnetic Isolation Module (E7490), and NEBNext Ultra Directional RNA Library Prep Kit for Illumina (E7420) (New England Biosystems #E74901).
The MagMAX mirVana kit instructions (the section titled “Isolate RNA from cells” on pages 14-17) were used for isolation of total RNA from cells in culture. Two hundred μl of Lysis Binding Mix was used per well of the multiwell plate containing adherent cells (usually a 24-well plate).
For mRNA isolation and library prep, the NEBNext Poly(A) mRNA Magnetic Isolation Module and Directional Prep kit was used. RNA isolated from cells above was quantified, and prepared in […] of each sample in 50 μl of nuclease-free water. This protocol may be run in microfuge tubes or in a 96-well plate.
Standard QC were applied (read integrity, mapping statistics, library complexity, fragment bias) to remove unsatisfactory samples. […] Log 2 fold change and significance values were computed using PME count data (with replicates explicitly modeled versus pan-experiment controls), median ratio normalized, using maximum likelihood estimation rather than maximum a posteriori, and disabling the use of Cook's distance cutoff when determining acceptable adjusted p-values. […] RNA-seq signals were also normalized by read depth and visualized using the UCSC browser.
To identify small molecules that modulate target gene expression, primary human hepatocytes were prepared as a monoculture, and at least one small molecule compound was applied to the cells.
RNA-seq was performed to determine the effects of the compounds on the expression of the target genes in hepatocytes. Fold change was calculated by dividing the level of expression in the cell system that had been perturbed by the level of expression in an unperturbed system. Changes in expression having a p-value ≤0.05 were considered significant.
Significance was defined as an FPKM ≥1, a log 2(fold change) ≥0.5, and a q-value of ≤0.05 for all targets except for CPOX.

For test [1], the system named is SERPINC1 mRNA. The test can be described thus: Quantitative PCR of SERPINC1 mRNA in primary human hepatocytes (Lonza Hu4282) treated with compounds. To be noted: quantitative PCR; for SERPINC1 mRNA, H8290, 1 uM / SERPINC1 mRNA, H8290, 10 uM: hepatocytes H8290; for SERPINC1 mRNA, H8290, 1 uM / SERPINC1 mRNA, Lonza Hu4282, 1 uM: compound 1 uM; for SERPINC1 mRNA, H8290, 10 uM / SERPINC1 mRNA, Lonza Hu4282, 10 uM: compound 10 uM; for SERPINC1 mRNA, Lonza Hu4282, 1 uM / SERPINC1 mRNA, Lonza Hu4282, 10 uM: primary human hepatocytes Lonza Hu4282.

Test [2] has as its system SERPINC1 mRNA. The test can be described thus: Quantitative PCR of SERPINC1 mRNA in mouse hepatocytes treated with compounds. The conditions noted are these: for SERPINC1 mRNA, Mouse Heps, 1 uM: compound 1 uM; for SERPINC1 mRNA, Mouse Heps, 10 uM: compound 10 uM. The method, then:
Samples were amplified using Taqman probes from ThermoFisher.
In some examples, RQ Min and RQ Max values are also reported. RQ Min and RQ Max are the minimum and maximum relative levels of gene expression in the test samples, respectively. They were calculated using the confidence level set in the analysis settings and the confidence level was set to one standard deviation (SD). These values were calculated using standard deviation as follows: […].
Compounds were tested in hepatocytes for upregulation of SERPINC1 mRNA for identification of potential treatments of SERPINC1/AT III deficiency.

In the next test the test system is ANGPTL3. Briefly: RNA-seq of ANGPTL3 expression in compound-treated primary human hepatocytes. To be noted: additional compounds (Table 13), linear fold change. The essentials:
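Cryopreserved primary human hepatocytes from three donors, plated at 375,000 cells/well, switched to complete or modified maintenance medium, then dosed with compound (stocks at 1000× final) for about 18 h. Poly(A) mRNA was sequenced directionally, mapped to GRCh38 with STAR, and gene-level abundance (counts, FPKM) estimated with RSEM against GENCODE 24.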

The next test relates to UGT1A1. Briefly: RNA-seq of UGT1A1 expression in compound-treated primary human hepatocytes. The procedure, abridged: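 Cryopreserved primary human hepatocytes from three donors were plated in 24-well format, then treated with compound diluted from 1000× stocks in serum-free maintenance medium for about 16–18 h. Poly(A) RNA-seq log2 fold change was computed against vehicle/pan-experiment controls. Significance required FPKM ≥1, log2FC ≥0.5 and q ≤0.05.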

Regarding `COc1cc2ncnc(Nc3ccc(Oc4ccccc4)cc3C)c2cc1OC.Cl` [APS-2-79], the “LECT2 Fold Change (Log2)” value with LECT2 was −0.68 Log2.
As for `CCNC(=O)Nc1ccc(-c2nc(N3CCOC[C@@H]3C)c3c(n2)C(C)(C)S(=O)(=O)C3)cc1` [CZ415], in the test with SERPINC1 mRNA [1], the “SERPINC1 mRNA, H8290, 1 uM” value is 1.4; the “SERPINC1 mRNA, H8290, 10 uM” value is listed as 2.3; the “SERPINC1 mRNA, Lonza Hu4282, 1 uM” value came out at 1.25; the “SERPINC1 mRNA, Lonza Hu4282, 10 uM” value was determined as 1.42. In the test on SERPINC1 mRNA [2], the “SERPINC1 mRNA, Mouse Heps, 1 uM” value is recorded as 2.2 and the “SERPINC1 mRNA, Mouse Heps, 10 uM” value is given as 2.5.
Turning to `CCN(CC)CCN(Cc1ccc(-c2ccc(C(F)(F)F)cc2)cc1)C(=O)Cn1c(SCc2ccc(F)cc2)nc(=O)c2c1CCC2` [Darapladib], the “ANGPTL3-LINEAR FOLD CHANGE” value in the test on ANGPTL3 came out at 0.4569. Moreover, the “LECT2 Fold Change (Log2)” value in the test with LECT2 is −0.55 Log2.
Turning to `O=[N+]([O-])c1ccc(Sc2cccc[n+]2[O-])c2nonc12` [NSC228155], in the test with LECT2, the “LECT2 Fold Change (Log2)” value is on record as −0.74 Log2.
With `CCCC(=O)O[C@@H]1[C@@H](C)[C@@]2(O)[C@@H](C=C(CO)C[C@]3(O)C(=O)C(C)=C[C@@H]23)[C@@H]2C(C)(C)[C@]12OC(=O)CCC` [Phorbol 12,13-dibutyrate], in the test on LECT2, the “LECT2 Fold Change (Log2)” value is −0.65 Log2.
On to `CO[C@H]1/C=C/O[C@@]2(C)Oc3c(C)c(O)c4c(O)c(c(/C=N/N5CCN(C)CC5)c(O)c4c3C2=O)NC(=O)/C(C)=C\C=C\[C@H](C)[C@H](O)[C@@H](C)[C@@H](O)[C@@H](C)[C@H](OC(C)=O)[C@@H]1C` [Rifampicin], for which the “LECT2 Fold Change (Log2)” value in the test on LECT2 is reported as −0.88 Log2.
With `CC(C)c1nc(CN(C)C(=O)N[C@H](C(=O)N[C@@H](Cc2ccccc2)C[C@H](O)[C@H](Cc2ccccc2)NC(=O)OCc2cncs2)C(C)C)cs1` [Ritonavir], the “UGT1A1 Fold Change (Log2)” value with UGT1A1 came out at 0.63 Log2. For the same compound, the “LECT2 Fold Change (Log2)” value with LECT2 is reported as −1.00 Log2.
Take `CN1C/C=C/CCOc2cccc(c2)-c2ccnc(n2)Nc2cccc(c2)C1` [SB1317/TG02]: in the test on SERPINC1 mRNA [1], the “SERPINC1 mRNA, Lonza Hu4282, 1 uM” value was found to be 1.9 and the “SERPINC1 mRNA, Lonza Hu4282, 10 uM” value was determined as 2.28. Moreover, in the test with SERPINC1 mRNA [2], the “SERPINC1 mRNA, Mouse Heps, 1 uM” value came out at 1.13 and the “SERPINC1 mRNA, Mouse Heps, 10 uM” value was 1.85.
As to `CN1CCN(CCCN2c3ccccc3Sc3ccc(C(F)(F)F)cc32)CC1` [TFP], the “ANGPTL3-LINEAR FOLD CHANGE” value in the test with ANGPTL3 is 0.2832. The “LECT2 Fold Change (Log2)” value in the test on LECT2 was −0.91 Log2.
As for `C[C@]12CC[C@@H]3c4ccc(O)cc4CC[C@H]3[C@@H]1CC[C@@H]2O` [b-Estradiol], the “LECT2 Fold Change (Log2)” value in the test on LECT2 is listed as −0.90 Log2.
Regarding `COc1cccc2cc(-c3nc([C@H]4CC[C@H](C(=O)O)CC4)n4ncnc(N)c34)[nH]c12` [compound 308 (OSI-027)], in the test with SERPINC1 mRNA [1], the “SERPINC1 mRNA, H8290, 1 uM” value is 1.7 and the “SERPINC1 mRNA, H8290, 10 uM” value is reported as 1.9. Further, in the test on SERPINC1 mRNA [2], the “SERPINC1 mRNA, Mouse Heps, 1 uM” value turned out to be 1.53 and the “SERPINC1 mRNA, Mouse Heps, 10 uM” value was 2.36.
